Source: article PMC11129182, “Development of Inhibitors, Probes, and PROTAC Provides a Complete Toolbox to Study PARK7 in the Living Cell” (Journal of Medicinal Chemistry, 2024)
Read-outs that look alike come from different tables or passages of the source.

Columns and labels:
[1] = test system: A549 cells; assay: Cell viability assay (CellTiter-Blue); format: cell-based, human; conditions: up to 5 μM, 72 h incubation
Description: 5 × 10^3 A549 cells were seeded into 96-well plates. The following day, the indicated final concentrations of JYQ-164 and JYQ-173 were added to the cells, and DMSO was used as a control. Inhibitors were renewed at 36 h, and cells were incubated with them an additional 36 h. Cell viability was measured using the CellTiter-Blue viability assay (Promega). Relative survival was normalized to the DMSO-treated sample and corrected for background signal. page 8: Figure S6. Cytotoxicity assay for JYQ-164 and JYQ-173 in A549 cells. ( A) PARK7 engagement of JYQ -164 and JYQ-173 in A459 cells. A549 cells were incubated with […] The reactions were stopped by addition of NuPAGE™ LDS sample buffer (4x) , followed by cell lysis, SDS-PAGE, fluorescence scanning, and immunoblott in g against PARK7 and β-actin. β-actin was used as a loading control. (B) A549 cells were incubated with indicated concentration of JYQ-164 (left panel) or JYQ-173 (right panel) for 72 h where the inhibitors were renewed after 36 h. Cell viability was measured using the CellTiter-Blue assay. Relative viability was normalized to untreated control and corrected for background signal. S8 (1 picture or pasted object on this page, not shown here)

[2] = target: T1, reactive cysteine sites of other proteins in A549 cells (Homo sapiens, UniProt O60664); conditions: 4 h, O60664_C39 Perilipin-3
T1 sequence (O60664 1-434): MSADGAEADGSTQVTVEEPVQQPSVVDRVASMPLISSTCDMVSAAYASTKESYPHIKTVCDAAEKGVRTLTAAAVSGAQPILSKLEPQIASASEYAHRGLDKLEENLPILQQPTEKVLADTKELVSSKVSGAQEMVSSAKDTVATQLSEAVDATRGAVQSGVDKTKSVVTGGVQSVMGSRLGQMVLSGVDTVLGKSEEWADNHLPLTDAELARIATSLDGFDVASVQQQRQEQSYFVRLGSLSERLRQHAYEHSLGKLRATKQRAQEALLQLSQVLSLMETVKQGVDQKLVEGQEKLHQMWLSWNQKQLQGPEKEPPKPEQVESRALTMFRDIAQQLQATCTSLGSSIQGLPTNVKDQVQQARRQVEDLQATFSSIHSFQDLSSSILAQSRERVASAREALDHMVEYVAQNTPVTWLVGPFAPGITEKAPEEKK
Text: (§1) Further, the samples were digested with tosylsulfonyl phenylalanyl chloromethyl ketone (TPCK)-treated trypsin and endoGluC to increase the coverage of protein sequences, especially the PARK7 peptide containing Cys106 residue. Peptides generated by digestion from replicates of each sample were labeled using TMT16-plex to perform tandem mass tag (TMT)-based quantitative proteomics profiling. Following the TMT labeling, all samples were pooled and the peptides conjugated to the DBIA probe were enriched by streptavidin beads and analyzed by LC-MS/MS (Figure 3A). […] All cysteines were represented with the shortest peptide by using the average CR values of all the peptides with the same modified cysteine from the same protein in the same condition.[16],[27],[28]
(§2) A549 cells were seeded into 10 cm plates in 10 mL of media. […] The cells were then washed two times with cold PBS (1 mL per 10 cm plate) and collected by scraping them with a cell scraper. Cells were lysed by sonication in ice-cold PBS and centrifuged at 15,000 rpm for 2 min to remove cell debris. The BCA Gold protein assay (Thermo Fisher Scientific) was performed to determine protein concentration. Each sample (100 μg) was labeled with 500 μM DBIA probe for 1 h in the dark at room temperature (RT). Excess DBIA and disulfide bonds were quenched and reduced, respectively, using 5 mM dithiothreitol (DTT) for 30 min in the dark at RT. Reduced disulfide bonds were alkylated using 20 mM iodoacetamide for 30 min in the dark at RT. […] Digested peptides were labeled with TMTpro16-plex reagents (Thermo Fisher Scientific) in a 1:4 ratio by mass (peptides/TMT reagents) for 1 h at RT. Excess TMT reagent was quenched with 5 μL 6% hydroxylamine for 15 min at RT. All samples were then pooled and lyophilized.
(§3) Nonspecific binding peptides were washed away using the following procedure: 3 × 1 mL of PBS pH 7.4, 2 × 1 mL of PBS with 0.1% SDS pH 7.4, and 3 × 1 mL of HPLC-grade water. DBIA probe-containing peptides were eluted using 700 μL of 50% acetonitrile in 0.1% TFA, lyophilized using a Speedvac, and desalted using a handmade mini-SPE column (10% sorbent material of a Waters, OASIS 1 cm^3 HLB 30 mg cartridge). Column was equilibrated with 200 μL of 90% acetonitrile and 3 × 200 μL of 10 mM NH4HCO3 pH 8.4. The dried sample was dissolved in 200 μL of 10 mM NH4HCO3 pH 8.4, loaded onto the column, washed 3x with 200 μL of 10 mM NH4HCO3 pH 8.4, and eluted into 3 fractions with 150 μL of 10, 20, and 50% acetonitrile (in 10 mM NH4HCO3). Samples were then lyophilized.
(§4) 2.2.04 (www.matrixscience.com) for protein identification. Mascot searches were done with 10 ppm and 0.02 Da deviation for the precursor and fragment mass, respectively, and the enzymes trypsin and EndoGluC was specified, up to three missed cleavages were allowed. Methionine oxidation, acetyl (protein N-term), and DBIA on Cys were set as a variable modification. Carbamidomethyl on Cys and TMTpro on Lys and N-term were set as a fixed modification. Peptides with an FDR <1% were accepted. Peptides were only retained, if they were quantified and if there was exactly one DBIA modification on the peptide. The values for each TMT channel were normalized to the average of the values for the DMSO samples for the same peptide, and these values were named CR. For each peptide, the first entry of the Master Protein Accessions column was chosen as the Master Protein Accession, and the residue number of the cysteine modified by DBIA within the entire protein sequence was determined. Using this information, each peptide was assigned an identifier consisting of the Master Protein Accession and the residue number of the modified cysteine to assign each peptide to the respective modified cysteine residue. Within each replicate, CR values for all peptides with the same identifier (and thus the same modified cysteine residue) were combined by averaging and only the shortest Annotated Sequence was kept as the final Annotated Sequence.

[3] = target: reactive cysteine sites of other proteins in A549 cells (Homo sapiens, UniProt Q13085); conditions: 4 h, Q13085_C1297 Acetyl-CoA carboxylase 1
Text: as §1, §2, §3, §4

[4] = target: reactive cysteine sites of other proteins in A549 cells (Homo sapiens, UniProt P40222); conditions: 4 h, P40222_C87 Alpha-taxilin
Sequence of reactive cysteine sites of other proteins in A549 cells (Homo sapiens, UniProt P40222) (P40222 whole entry): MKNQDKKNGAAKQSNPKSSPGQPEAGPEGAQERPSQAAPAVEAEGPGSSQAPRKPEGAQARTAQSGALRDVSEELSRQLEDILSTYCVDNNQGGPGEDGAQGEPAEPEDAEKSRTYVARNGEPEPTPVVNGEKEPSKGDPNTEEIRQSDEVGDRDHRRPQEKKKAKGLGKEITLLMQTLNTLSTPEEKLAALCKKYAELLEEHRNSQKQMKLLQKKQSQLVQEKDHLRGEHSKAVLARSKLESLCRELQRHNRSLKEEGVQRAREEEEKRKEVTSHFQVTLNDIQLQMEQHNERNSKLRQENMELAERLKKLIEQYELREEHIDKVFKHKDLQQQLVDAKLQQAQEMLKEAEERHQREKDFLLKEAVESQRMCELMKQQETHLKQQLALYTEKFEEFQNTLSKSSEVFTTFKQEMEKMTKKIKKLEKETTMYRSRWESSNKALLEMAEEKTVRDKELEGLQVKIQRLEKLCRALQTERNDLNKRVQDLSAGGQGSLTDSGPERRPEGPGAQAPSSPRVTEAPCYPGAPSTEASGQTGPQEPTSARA
Text: as §1, §2, §3, §4

[5] = target: reactive cysteine sites of other proteins in A549 cells (Homo sapiens, UniProt P04080); conditions: 4 h, P04080_C3 Cystatin-B
Sequence of reactive cysteine sites of other proteins in A549 cells (Homo sapiens, UniProt P04080) (P04080 whole entry): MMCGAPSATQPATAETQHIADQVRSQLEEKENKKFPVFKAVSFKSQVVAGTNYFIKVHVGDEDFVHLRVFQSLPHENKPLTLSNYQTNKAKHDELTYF
Text: as §1, §2, §3, §4

## N#CN1CC[C@@H](C(=O)Nc2nc3c(s2)CN(C(=O)c2cc(-n4ccnn4)ccc2F)CC3)C1 [Compound 84, (R)-1-Cyano-N-(5-(2-fluoro-5-(1H-1,2,3-triazol-1-yl)benzoyl)-4,5,6,7-tetrahydrothiazolo[5,4-c]pyridin-2-yl)pyrrolidine-3-carboxamide]
[1]
  cytotoxicity: did not show any cytotoxicity
[2]; A549, 0.5 µM
  Average log2 CR (DMSO/inhibitor): 0.4419
[2]; A549, 5 µM
  Average log2 CR (DMSO/inhibitor): 1.439
[3]; A549, 0.5 µM
  Average log2 CR (DMSO/inhibitor): 0.6874
[3]; A549, 5 µM
  Average log2 CR (DMSO/inhibitor): 1.886
[4]; A549, 0.5 µM
  Average log2 CR (DMSO/inhibitor): 0.7392
[4]; A549, 5 µM
  Average log2 CR (DMSO/inhibitor): 1.414
[5]; A549, 0.5 µM
  Average log2 CR (DMSO/inhibitor): 0.9051
[5]; A549, 5 µM
  Average log2 CR (DMSO/inhibitor): 1.676
